This test has as its system P388 leukemia ip, CD2F1 mice, survival T/C. The experiment in a line: NCI In Vivo Anticancer Drug Screen. Data for tumor model P388 Leukemia (intraperitoneal) in CD2F1 (CDF1) mice. The note with it: endpoint: median survival time, higher = longer survival. An outline of the steps:
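Mice carrying the transplanted tumor received test compound or vehicle. Survival was recorded in each group, and the value is the treated-group measurement divided by that of the vehicle-treated control group.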

The mark [1] stands for this setting: dose: 100.0 mg/kg/injection, schedule: Q04DX003 (ip), vehicle: saline.
[2] abbreviates: dose: 200.0 mg/kg/injection, schedule: Q04DX003 (ip), vehicle: saline.
[3] abbreviates: dose: 400.0 mg/kg/injection, schedule: Q04DX003 (ip), vehicle: saline.
Where [4] appears, read: dose: 50.0 mg/kg/injection, schedule: Q01DX009 (ip), vehicle: saline with Tween-80.
Setting [5] is: dose: 100.0 mg/kg/injection, schedule: Q01DX009 (ip), vehicle: saline with Tween-80.
[6] abbreviates: dose: 200.0 mg/kg/injection, schedule: Q01DX009 (ip), vehicle: saline with Tween-80.
Where [7] appears, read: dose: 50.0 mg/kg/injection, schedule: Q01DX005 (ip), vehicle: saline with Tween-80.
[8] abbreviates: dose: 100.0 mg/kg/injection, schedule: Q01DX005 (ip), vehicle: saline with Tween-80.
[9] abbreviates: dose: 50.0 mg/kg/injection, schedule: Q01DX009 (ip), vehicle: saline.
Setting [10] is: dose: 200.0 mg/kg/injection, schedule: Q01DX009 (ip), vehicle: saline.

Several values for one entry are separate records, joined by “and”; a condition that tells them apart may be missing. Identical values can stand only once. Toxic doses and inconclusive results are not listed.

Consider `COC(=O)C1=C(C(=O)OC)C2(c3ccccc3-c3ccccc32)C2C=CC=CN12` (configuration not stated), for which the T/C by setting is: (dose: 50.0 mg/kg/injection, schedule: Q01DX005 (ip), vehicle: Klucel (hydroxypropylcellulose) (HPC)) 100 % of control; (dose: 100.0 mg/kg/injection, schedule: Q01DX005 (ip), vehicle: Klucel (hydroxypropylcellulose) (HPC)) 101 % of control; (dose: 200.0 mg/kg/injection, schedule: Q01DX005 (ip), vehicle: Klucel (hydroxypropylcellulose) (HPC)) 100 % of control.
In the case of `CC(C)(C)OSc1ccccc1`, the T/C reads like this: (dose: 100.0 mg/kg/injection, schedule: Q04DX002 (ip), vehicle: Klucel (hydroxypropylcellulose) (HPC)) 101 % of control; (dose: 200.0 mg/kg/injection, schedule: Q04DX002 (ip), vehicle: Klucel (hydroxypropylcellulose) (HPC)) 97 % of control; (dose: 400.0 mg/kg/injection, schedule: Q04DX002 (ip), vehicle: Klucel (hydroxypropylcellulose) (HPC)) 102 % of control.
On to `Cn1c(=O)c2c(nc(/N=C/c3cccc([N+](=O)[O-])c3)n2C)n(C)c1=O`, for which the T/C reads like this: under setting [1], 100 % of control; under setting [2], 94 % of control; under setting [3], 86 % of control.
Take `CSc1cccc(NC(=O)OCCOc2ccccc2Cl)c1`: the T/C was 105 % of control under setting [4], 101 % of control under setting [5] and 100 % of control under setting [6].
For the compound `[CH3][Sn]([CH3])([CH3])[O]C(=O)CNC(=O)c1ccccc1`, the T/C runs as follows: (dose: 1.56 mg/kg/injection, schedule: Q01DX001 (ip), vehicle: Klucel (hydroxypropylcellulose) (HPC)) 103 % of control; (dose: 3.12 mg/kg/injection, schedule: Q01DX001 (ip), vehicle: Klucel (hydroxypropylcellulose) (HPC)) 103 % of control.
In the case of `COc1ccc(NC(=S)NC(=O)c2ccccc2)cc1OC`, the T/C was 99 % of control under setting [4], 100 % of control under setting [5] and 107 % of control under setting [6].
For `CCOC(=O)CN=NNc1ccccc1C(=O)CC`, the T/C is, setting by setting: (dose: 100.0 mg/kg/injection, schedule: Q01DX001 (ip), vehicle: Klucel (hydroxypropylcellulose) (HPC)) 98 % of control; (dose: 200.0 mg/kg/injection, schedule: Q01DX001 (ip), vehicle: Klucel (hydroxypropylcellulose) (HPC)) 100 % of control; (dose: 400.0 mg/kg/injection, schedule: Q01DX001 (ip), vehicle: Klucel (hydroxypropylcellulose) (HPC)) 100 % of control.
As for `O=C(NC1CC1)OCc1c(COC(=O)NC2CC2)c(-c2ccc(Cl)c(Cl)c2)n2c1CCC2`, the T/C is 160 % of control (dose: 6.25 mg/kg/injection, schedule: Q01DX009 (ip), vehicle: distilled water + Tween-80); 171 % of control and 183 % of control (dose: 12.5 mg/kg/injection, schedule: Q01DX009 (ip), vehicle: distilled water + Tween-80); 101 % of control and 206 % of control (dose: 25.0 mg/kg/injection, schedule: Q01DX009 (ip), vehicle: distilled water + Tween-80).
As to `COc1ccc(CC2=CC(=O)C(=O)C=C2C)cc1`, the T/C runs as follows: (dose: 2.5 mg/kg/injection, schedule: Q01DX009 (ip), vehicle: saline + alcohol) 101 % of control; (dose: 5.0 mg/kg/injection, schedule: Q01DX009 (ip), vehicle: saline + alcohol) 100 % of control; (dose: 10.0 mg/kg/injection, schedule: Q01DX009 (ip), vehicle: saline + alcohol) 102 % of control.
Regarding `c1ccc(-c2[s+]ccc3ccccc23)cc1`, the T/C (dose: 50.0 mg/kg/injection, schedule: Q01DX009 (ip), vehicle: Klucel (hydroxypropylcellulose) (HPC)) was 115 % of control; the T/C (dose: 100.0 mg/kg/injection, schedule: Q01DX009 (ip), vehicle: Klucel (hydroxypropylcellulose) (HPC)) was 118 % of control; the T/C (dose: 200.0 mg/kg/injection, schedule: Q01DX009 (ip), vehicle: Klucel (hydroxypropylcellulose) (HPC)) is 117 % of control.
As for `COc1ccc(C(SCC(N)C(=O)O)(c2ccccc2)c2ccccc2)cc1` (configuration not stated), the T/C (dose: 66.0 mg/kg/injection, schedule: Q04DX003 (ip), vehicle: Klucel (hydroxypropylcellulose) (HPC)) was 105 % of control and the T/C (dose: 100.0 mg/kg/injection, schedule: Q04DX003 (ip), vehicle: Klucel (hydroxypropylcellulose) (HPC)) is 150 % of control.
Consider `NC(N)=NS(=O)(=O)c1ccc(N=c2c3ccccc3n(-c3ccccc3)c3ccccc23)cc1`, for which the T/C is, setting by setting: under setting [7], 90 % of control; under setting [8], 87 % of control.
Consider `CC(C)(CN1CCCN(CC(C)(C)C(=O)O)C1=O)C(=O)O`, for which the T/C was 93 % of control under setting [9]; 94 % of control (dose: 100.0 mg/kg/injection, schedule: Q01DX009 (ip), vehicle: saline); 98 % of control under setting [10].
Regarding `CCC(c1ccc(OCCS(=O)(=O)OC)cc1)C(CC)c1ccc(OCCS(=O)(=O)OC)cc1` (configuration not stated), the T/C by setting is: (dose: 12.5 mg/kg/injection, schedule: Q01DX009 (ip), vehicle: suspension in saline) 100 % of control; (dose: 25.0 mg/kg/injection, schedule: Q01DX009 (ip), vehicle: suspension in saline) 94 % of control; under setting [9], 91 % of control; (dose: 50.0 mg/kg/injection, schedule: Q01DX009 (ip), vehicle: suspension in saline) 87 % of control; under setting [10], 92 % of control.
Consider `CC12CCC3C(CCC4=CC(OC5OC(CO)C(O)C(O)C5O)CCC43C=O)C1(O)CCC2c1ccc(=O)oc1` (configuration not stated), for which the T/C reads like this: (dose: 0.12 mg/kg/injection, schedule: Q01DX009 (ip), vehicle: saline + alcohol) 103 % of control; (dose: 0.25 mg/kg/injection, schedule: Q01DX009 (ip), vehicle: saline + alcohol) 106 % of control; (dose: 0.5 mg/kg/injection, schedule: Q01DX009 (ip), vehicle: saline + alcohol) 106 % of control; (dose: 1.0 mg/kg/injection, schedule: Q01DX009 (ip), vehicle: saline + alcohol) 103 % of control.
With `CN(NC1OC(=O)c2ccccc21)c1ccc(C(F)(F)F)cc1[N+](=O)[O-]` (configuration not stated), the T/C is 95 % of control (dose: 60.0 mg/kg/injection, schedule: Q01DX005 (ip), vehicle: Klucel (hydroxypropylcellulose) (HPC)); 98 % of control (dose: 120.0 mg/kg/injection, schedule: Q01DX005 (ip), vehicle: Klucel (hydroxypropylcellulose) (HPC)); 100 % of control (dose: 240.0 mg/kg/injection, schedule: Q01DX005 (ip), vehicle: Klucel (hydroxypropylcellulose) (HPC)).
As for `COC(=O)c1cc(=O)n2cnc3c(ncn3C3OC(CO)C(O)C3O)c2c1` (configuration not stated), the T/C is, setting by setting: under setting [1], 98 % of control; under setting [2], 100 % of control; under setting [3], 100 % of control.
Take `CN1CCC(c2ccccc2)C(OC(=O)c2ccccc2)C1` (configuration not stated): the T/C (dose: 25.0 mg/kg/injection, schedule: Q01DX005 (ip), vehicle: saline) was 110 % of control; the T/C (dose: 50.0 mg/kg/injection, schedule: Q01DX005 (ip), vehicle: saline) was 111 % of control; the T/C (dose: 100.0 mg/kg/injection, schedule: Q01DX005 (ip), vehicle: saline) is 100 % of control.
Take `BrC1CC(Br)c2c1c1c(c3c2C(Br)CC3Br)C(Br)CC1Br` (configuration not stated): the T/C under setting [5] is 150 % of control and the T/C under setting [6] is 156 % of control.
As for `CC(=O)/C(=C\c1ccccc1F)C(=O)CCN(C)C`, the T/C runs as follows: (dose: 60.0 mg/kg/injection, schedule: Q01DX005 (ip), vehicle: saline) 109 % of control; (dose: 120.0 mg/kg/injection, schedule: Q01DX005 (ip), vehicle: saline) 118 % of control.
In the case of `CCOc1ccc(NC(=O)/C(=C\c2ccc(C)cc2)C(C)=O)cc1`, the T/C by setting is: under setting [7], 106 % of control; under setting [8], 110 % of control; (dose: 200.0 mg/kg/injection, schedule: Q01DX005 (ip), vehicle: saline with Tween-80) 104 % of control.
Regarding `N#Cc1c(N2CCOCC2)cc(-c2ccccc2)oc1=O`, the T/C (dose: 25.0 mg/kg/injection, schedule: Q04DX002 (ip), vehicle: saline with Tween-80) was 101 % of control; the T/C (dose: 50.0 mg/kg/injection, schedule: Q04DX002 (ip), vehicle: saline with Tween-80) is 97 % of control; the T/C (dose: 100.0 mg/kg/injection, schedule: Q04DX002 (ip), vehicle: saline with Tween-80) was 100 % of control.
Consider `NC(N)=N/N=C/c1ccc(Cl)c(Cl)c1`, for which the T/C was 100 % of control (dose: 12.5 mg/kg/injection, schedule: Q01DX009 (ip), vehicle: saline with Tween-80); 95 % of control (dose: 25.0 mg/kg/injection, schedule: Q01DX009 (ip), vehicle: saline with Tween-80); 86 % of control under setting [4].

Source of the values: PubChem BioAssay AID330 (DTP/NCI, 2004).
